The values below are quoted from earlier work in patent publication US20100305045A1, “OMEGA-3 OIL CONTAINING OPHTHALMIC EMULSIONS” (Abbott Medical Optics Inc., priority 2009, published 2010).

The conditions of the series: HLB value as reported by the manufacturer of the commercial product, or rough average.

Read-outs that look alike come from different tables or passages of the source.

For the substance “2,4,7,9-Tetramethyl-5-decyne-4,7-diol ethoxylate”, the HLB is recorded as 8.0. For the substance “2,4,7,9-Tetramethyl-5-decyne-4,7-diol ethoxylate (15 EO/OH)”, the HLB is reported as 17.0. Regarding Polyoxyethylene sorbitan tetraoleate, the HLB is 11.4. In the case of Polyoxyethylene sorbitol hexaoleate, the HLB is given as 10.2. As to “Polyoxyethylene(2) cetyl ether [Brij ® 52]”, the HLB is reported as 5.3. For “Polyoxyethylene(2) isooctylphenyl ether [Igepal ® CA-210]”, the HLB was 4.3. As for “Polyoxyethylene(2) nonylphenyl ether [Igepal CO-210]”, the HLB is given as 4.6. In the case of “Polyoxyethylene(2) oleyl ether [Brij ® 92/93]”, the HLB is given as 4.9. Regarding “Polyoxyethylene(2) stearyl ether [Brij ® 72]”, the HLB is reported as 4.9. Moreover, the HLB result (listed as Brij 72) is “approximately 4.9”. For “Polyoxyethylene(4) lauryl ether [Brij ® 30]”, the HLB was 9.7. In the case of “Polyoxyethylene(5) isooctylphenyl ether [Igepal ® CA-520]”, the HLB is 10.0. As to “Polyoxyethylene(5) nonylphenyl ether [Igepal ® CO-520]”, the HLB is listed as 10.0. As for “Polyoxyethylene(12) isooctylphenyl ether [Igepal ® CA-720]”, the HLB is recorded as 14.6.

As to “Polyoxyethylene(12) nonylphenyl ether [Igepal ® CO-720]”, the HLB is reported as 14.2. For the substance Polyoxyethylene(12) tridecyl ether, the HLB is on record as 14.5. With Polyoxyethylene(18) tridecyl ether, the HLB is on record as 14.5. “Polyoxyethylene(40) isooctylphenyl ether [Triton ® X-405]”: the HLB was 17.9. “Polyoxyethylene(40) nonylphenyl ether [Igepal ® CO-890]”: the HLB was 17.8. As for “Polyoxyethylene(100) nonylphenyl ether [Igepal ® CO-990]”, the HLB is listed as 19.0.

As for “Polyoxyethylene(100) stearyl ether [Brij ® 700]”, the HLB is recorded as 18.8. Consider “Polyoxyethylene(150) dinonylphenyl ether [Igepal ® DM-970]”, for which the HLB was 19.0.

As for Sorbitan monooleate, the HLB is listed as 4.3. With Sorbitan monopalmitate, the HLB is 6.7. Turning to Sorbitan monostearate, the HLB was 4.7.
